Data on eleven compounds can be found in patent publication US8012956B2, “Tropane compounds” (Exelixis, Inc., priority 2007, dated 2011).

The IC50 is the concentration that gives 50% inhibition.

For this experiment, the target named is HSP90 (Homo sapiens, UniProt P07900). Kind of experiment: HSP90 inhibition (HSP90 IC50). Type of experiment: biochemical.
In the case of `COc1cccc(C(=O)NC2CC3CCC(C2)N3c2ccc(C(=O)NC(C)c3ccc(Br)cc3F)cn2)c1C` (stereo not drawn) [N-[1-(4-bromo-2-fluorophenyl)ethyl]-6-[3-endo-({[2-methyl-3-(methyloxy)phenyl]carbonyl}amino)-8-azabicyclo[3.2.1]oct-8-yl]pyridine-3-carboxamide], the IC50 was 2000 to 10000 nM.

For `COc1cccc(C(=O)NC2CC3CCC(C2)N3c2ccc(C(=O)NC(C)c3ccc(Cl)cc3)cn2)c1C` (stereo not drawn) [N-[1-(4-chlorophenyl)ethyl]-6-[3-endo-({[2-methyl-3-(methyloxy)phenyl]carbonyl}amino)-8-azabicyclo[3.2.1]oct-8-yl]pyridine-3-carboxamide], the IC50 was below 500 nM.

Take `CCN(CC)CCNC(=O)c1ccc(N2[C@@H]3CC[C@H]2C[C@@H](NC(=O)c2cccc(OC)c2C)C3)nc1` [N-[2-(diethylamino)ethyl]-6-[3-endo-({[2-methyl-3-(methyloxy)phenyl]carbonyl}amino)-8-azabicyclo[3.2.1]oct-8-yl]pyridine-3-carboxamide]: the IC50 was 500 to 999 nM.

Regarding `COc1cccc(C(=O)N[C@H]2C[C@H]3CC[C@@H](C2)N3c2ccc(C(=O)NCCN(C)C)cn2)c1C` [N-[2-(dimethylamino)ethyl]-6-[3-endo-({[2-methyl-3-(methyloxy)phenyl]carbonyl}amino)-8-azabicyclo[3.2.1]oct-8-yl]pyridine-3-carboxamide], the IC50 was in the range of 1000 to 2000 nM.

Regarding `COc1cccc(C(=O)N[C@H]2C[C@H]3CC[C@@H](C2)N3c2ccc(C(=O)NCCCn3ccnc3)cn2)c1C` [N-[3-(1H-imidazol-1-yl)propyl]-6-[3-endo-({[2-methyl-3-(methyloxy)phenyl]carbonyl}amino)-8-azabicyclo[3.2.1]oct-8-yl]pyridine-3-carboxamide], the IC50 is below 500 nM.

In turn, `CCN(CC)CCCNC(=O)c1ccc(N2[C@@H]3CC[C@H]2C[C@@H](NC(=O)c2cccc(OC)c2C)C3)nc1` [N-[3-(diethylamino)propyl]-6-[3-endo-({[2-methyl-3-(methyloxy)phenyl]carbonyl}amino)-8-azabicyclo[3.2.1]oct-8-yl]pyridine-3-carboxamide] registered an IC50 of 500 to 999 nM.

`COc1cccc(C(=O)N[C@H]2C[C@H]3CC[C@@H](C2)N3c2ccc(C(=O)NCCCN(C)C)cn2)c1C` [N-[3-(dimethylamino)propyl]-6-[3-endo-({[2-methyl-3-(methyloxy)phenyl]carbonyl}amino)-8-azabicyclo[3.2.1]oct-8-yl]pyridine-3-carboxamide]: the IC50 was in the range of 500 to 999 nM.

In turn, `CCOCCCNC(=O)c1ccc(N2[C@@H]3CC[C@H]2C[C@@H](NC(=O)c2cccc(OC)c2C)C3)nc1` [N-[3-(ethyloxy)propyl]-6-[3-endo-({[2-methyl-3-(methyloxy)phenyl]carbonyl}amino)-8-azabicyclo[3.2.1]oct-8-yl]pyridine-3-carboxamide] gave an IC50 of 1000 to 2000 nM.

For the compound `COc1cccc(C(=O)N[C@H]2C[C@H]3CC[C@@H](C2)N3c2ccc(C(=O)NCCCC(OC)OC)cn2)c1C` [N-[4,4-bis(methyloxy)butyl]-6-[3-endo-({[2-methyl-3-(methyloxy)phenyl]carbonyl}amino)-8-azabicyclo[3.2.1]oct-8-yl]pyridine-3-carboxamide], the IC50 lay within 1000 to 2000 nM.

`CC(=O)c1ccc(N2[C@@H]3CC[C@H]2C[C@@H](NC(=O)c2cc(C)c(C(N)=O)cc2C)C3)nc1` [N-[8-(5-acetylpyridin-2-yl)-8-azabicyclo[3.2.1]oct-3-endo-yl]-2,5-dimethylbenzene-1,4-dicarboxamide] yielded an IC50 below 500 nM.

Turning to `CCCCCNc1cc(C(=O)N[C@H]2C[C@H]3CC[C@@H](C2)N3c2ccc(C(C)=O)cn2)c(C)cc1C(N)=O` [N-[8-(5-acetylpyridin-2-yl)-8-azabicyclo[3.2.1]oct-3-endo-yl]-2-methyl-5-(pentylamino)benzene-1,4-dicarboxamide], the half-maximal inhibitory concentration (IC50) was below 500 nM.
